Source: patent US20100311714A1, “1H-IMIDAZO[4,5-c]QUINOLINONE COMPOUNDS” (priority 2009, published 2010)

Tested on: PKB Ser473 phosphorylation in Rat1-myr-HA-p110 beta cells
Test: Reverse protein array, PKB Ser473 phosphorylation in Rat1-myr-HA-p110 beta cells
Type: cell-based
Settings: Rattus norvegicus, 0.5 h, 30 minutes compound incubation, read-out: p-PKB/IC50_beta

Compound | IC50 [nM]
Cc1nc(N2CCC2)ccc1-n1c(=O)n(C)c2cnc3ccc(-c4cncc(OC(C)C)c4)cc3c21 [Example 23.9, 1-(6-Azetidin-1-yl-2-methyl-pyridin-3-yl)-8-(5-isopropoxy-pyridin-3-yl)-3-methyl-1,3-dihydro-imidazo[4,5-c]quinolin-2-one] | 136
CN(C)c1ccc(-c2ccc3ncc4c(c3c2)n(-c2cccnc2)c(=O)n4C)cn1 [Example 5.3, 8-(6-Dimethylamino-pyridin-3-yl)-3-methyl-1-pyridin-3-yl-1,3-dihydro-imidazo[4,5-c]quinolin-2-one] | 185
COC1CCN(c2ccc(-n3c(=O)n(C)c4cnc5ccc(-c6cncc(C(C)(C)O)c6)cc5c43)c(C)n2)C1 (stereo not drawn) [Example 28.1, 8-[5-(1-Hydroxy-1-methyl-ethyl)-pyridin-3-yl]-1-[6-(3-methoxy-pyrrolidin-1-yl)-2-methyl-pyridin-3-yl]-3-methyl-1,3-dihydro-imidazo[4,5-c]quinolin-2-one] | 36.7
CCNc1ncc(-c2ccc3ncc4c(c3c2)n(-c2ccc(N3CC[C@@H](O)C3)nc2C)c(=O)n4C)cc1C(F)(F)F [Example 34.2, 8-(6-Ethylamino-5-trifluoromethyl-pyridin-3-yl)-1-[6-((R)-3-hydroxy-pyrrolidin-1-yl)-2-methyl-pyridin-3-yl]-3-methyl-1,3-dihydro-imidazo[4,5-c]quinolin-2-one] | 15.2
COc1cc(-c2ccc3ncc4c(c3c2)n(-c2ccc(N3CC(O)C3)nc2C)c(=O)n4C)cnc1CO [Example 29.5, 1-[6-(3-Hydroxy-azetidin-1-yl)-2-methyl-pyridin-3-yl]-8-(6-hydroxymethyl-5-methoxy-pyridin-3-yl)-3-methyl-1,3-dihydro-imidazo[4,5-c]quinolin-2-one] | 374
Cc1ncccc1-n1c(=O)n(C)c2cnc3ccc(-c4cncc(N5CCC5)c4)cc3c21 [Example 2.29, 8-(5-Azetidin-1-yl-pyridin-3-yl)-3-methyl-1-(2-methyl-pyridin-3-yl)-1,3-dihydro-imidazo[4,5-c]quinolin-2-one] | 19.7
CNc1ccc(-c2ccc3ncc4c(c3c2)n(-c2cccnc2C)c(=O)n4C)cn1 [Example 2.13, 3-Methyl-8-(6-methylamino-pyridin-3-yl)-1-(2-methyl-pyridin-3-yl)-1,3-dihydro-imidazo[4,5-c]quinolin-2-one] | 18.7
Cc1nc(N2CCN(C)C(=O)C2)ccc1-n1c(=O)n(C)c2cnc3ccc(-c4cnc(N)c(C(F)(F)F)c4)cc3c21 [Example 21.1, 8-(6-Amino-5-trifluoromethyl-pyridin-3-yl)-3-methyl-1-[2-methyl-6-(4-methyl-3-oxo-piperazin-1-yl)-pyridin-3-yl]-1,3-dihydro-imidazo[4,5-c]quinolin-2-one] | 5.3
COc1ccc(-c2ccc3ncc4c(c3c2)n(-c2ncccc2C)c(=O)n4C)cc1OC [Example 3.10, 8-(3,4-Dimethoxy-phenyl)-3-methyl-1-(3-methyl-pyridin-2-yl)-1,3-dihydro-imidazo[4,5-c]quinolin-2-one] | 516
CCOc1ccc(-c2ccc3ncc4c(c3c2)n(-c2cccnc2F)c(=O)n4C)cn1 [Example 6.1, 8-(6-Ethoxy-pyridin-3-yl)-1-(2-fluoro-pyridin-3-yl)-3-methyl-1,3-dihydro-imidazo[4,5-c]quinolin-2-one] | 56.2
Cc1nc(N2CCC2)ccc1-n1c(=O)n(C)c2cnc3ccc(-c4cncc(C(C)(C)O)c4)cc3c21 [Example 23.3, 1-(6-Azetidin-1-yl-2-methyl-pyridin-3-yl)-8-[5-(1-hydroxy-1-methyl-ethyl)-pyridin-3-yl]-3-methyl-1,3-dihydro-imidazo[4,5-c]quinolin-2-one] | 23.1
Cc1ncccc1-n1c(=O)n(C)c2cnc3ccc(-c4ccc(C(N)=O)cc4)cc3c21 [Example 2.3, 4-[3-Methyl-1-(2-methyl-pyridin-3-yl)-2-oxo-2,3-dihydro-1H-imidazo[4,5-c]quinolin-8-yl]-benzamide] | 15.9
Cc1nc(F)ccc1-n1c(=O)n(C)c2cnc3ccc(-c4cnc5c(ccn5C)c4)cc3c21 [Example 7.2, 1-(6-Fluoro-2-methyl-pyridin-3-yl)-3-methyl-8-(1-methyl-1H-pyrrolo[2,3-b]pyridin-5-yl)-1,3-dihydro-imidazo[4,5-c]quinolin-2-one] | 29.5
Cc1ncccc1-n1c(=O)n(C)c2cnc3ccc(-c4cnc(N)c(C(F)(F)F)c4)cc3c21 [Example 2.11, 8-(6-Amino-5-trifluoromethyl-pyridin-3-yl)-3-methyl-1-(2-methyl-pyridin-3-yl)-1,3-dihydro-imidazo[4,5-c]quinolin-2-one] | 9.92
Cc1nc(N2CCCC2)ccc1-n1c(=O)n(C)c2cnc3ccc(-c4cncc(C(C)(C)O)c4)cc3c21 [Example 25.3, 8-[5-(1-Hydroxy-1-methyl-ethyl)-pyridin-3-yl]-3-methyl-1-(2-methyl-6-pyrrolidin-1-yl-pyridin-3-yl)-1,3-dihydro-imidazo[4,5-c]quinolin-2-one] | 30.6
Cc1ncccc1-n1c(=O)n(C)c2cnc3ccc(-c4ccc(OCCCN(C)C)nc4)cc3c21 [Example 2.10, 8-[6-(3-Dimethylamino-propoxy)-pyridin-3-yl]-3-methyl-1-(2-methyl-pyridin-3-yl)-1,3-dihydro-imidazo[4,5-c]quinolin-2-one] | 84.2
Cn1c(=O)n(-c2cccnc2F)c2c3cc(-c4cnc(N)c(C(F)(F)F)c4)ccc3ncc21 [Example 6.2, 8-(6-Amino-5-trifluoromethyl-pyridin-3-yl)-1-(2-fluoro-pyridin-3-yl)-3-methyl-1,3-dihydro-imidazo[4,5-c]quinolin-2-one] | 10.2
CCOc1ccc(-c2ccc3ncc4c(c3c2)n(-c2ccc(N3CCNCC3)nc2OC)c(=O)n4C)cn1 [Example 9.1, 8-(6-Ethoxy-pyridin-3-yl)-1-(2-methoxy-6-piperazin-1-yl-pyridin-3-yl)-3-methyl-1,3-dihydro-imidazo[4,5-c]quinolin-2-one] | 33.3
Cc1cccnc1-n1c(=O)n(C)c2cnc3ccc(-c4ccc(C(N)=O)cc4)cc3c21 [Example 3.3, 4-[3-Methyl-1-(3-methyl-pyridin-2-yl)-2-oxo-2,3-dihydro-1H-imidazo[4,5-c]quinolin-8-yl]-benzamide] | 259
CNc1cncc(-c2ccc3ncc4c(c3c2)n(-c2cccnc2C)c(=O)n4C)c1 [Example 2.26, 3-Methyl-8-(5-methylamino-pyridin-3-yl)-1-(2-methyl-pyridin-3-yl)-1,3-dihydro-imidazo[4,5-c]quinolin-2-one] | 7.4
Cn1c(=O)n(-c2cccnc2)c2c3cc(-c4ccc(CO)nc4)ccc3ncc21 [Example 5.1, 8-(6-Hydroxymethyl-pyridin-3-yl)-3-methyl-1-pyridin-3-yl-1,3-dihydro-imidazo[4,5-c]quinolin-2-one] | 166
Cc1nc(F)ccc1-n1c(=O)n(C)c2cnc3ccc(-c4cnc(N)c(C(F)(F)F)c4)cc3c21 [Example 7.1, 8-(6-Amino-5-trifluoromethyl-pyridin-3-yl)-1-(6-fluoro-2-methyl-pyridin-3-yl)-3-methyl-1,3-dihydro-imidazo[4,5-c]quinolin-2-one] | 13.4
COc1ccc(-c2ccc3ncc4c(c3c2)n(-c2cccnc2C)c(=O)n4C)cn1 [Example 2.12, 8-(6-Methoxy-pyridin-3-yl)-3-methyl-1-(2-methyl-pyridin-3-yl)-1,3-dihydro-imidazo[4,5-c]quinolin-2-one] | 19.8
COc1ncccc1-n1c(=O)n(C)c2cnc3ccc(-c4ccc(C(N)=O)cc4)cc3c21 [Example 1.6, 4-[1-(2-Methoxy-pyridin-3-yl)-3-methyl-2-oxo-2,3-dihydro-1H-imidazo[4,5-c]quinolin-8-yl]-benzamide] | 16.9
COCc1ncc(-c2ccc3ncc4c(c3c2)n(-c2ccc(N3CCC3)nc2C)c(=O)n4C)cc1OC [Example 23.6, 1-(6-Azetidin-1-yl-2-methyl-pyridin-3-yl)-8-(5-methoxy-6-methoxymethyl-pyridin-3-yl)-3-methyl-1,3-dihydro-imidazo[4,5-c]quinolin-2-one] | 103
COc1ccc(-c2ccc3ncc4c(c3c2)n(-c2cnccc2C)c(=O)n4C)cn1 [Example 4.3, 8-(6-Methoxy-pyridin-3-yl)-3-methyl-1-(4-methyl-pyridin-3-yl)-1,3-dihydro-imidazo[4,5-c]quinolin-2-one] | 363
CNc1ncc(-c2ccc3ncc4c(c3c2)n(-c2ccc(C(C)(C)O)nc2C)c(=O)n4C)cc1F [Example 31.1, 8-(5-Fluoro-6-methylamino-pyridin-3-yl)-1-[6-(1-hydroxy-1-methyl-ethyl)-2-methyl-pyridin-3-yl]-3-methyl-1,3-dihydro-imidazo[4,5-c]quinolin-2-one] | 19.3
Cc1cccnc1-n1c(=O)n(C)c2cnc3ccc(-c4cnc(N)c(C(F)(F)F)c4)cc3c21 [Example 3.12, 8-(6-Amino-5-trifluoromethyl-pyridin-3-yl)-3-methyl-1-(3-methyl-pyridin-2-yl)-1,3-dihydro-imidazo[4,5-c]quinolin-2-one] | 172
COc1ncc(-c2ccc3ncc4c(c3c2)n(-c2ccc(N3CC(O)C3)nc2C)c(=O)n4C)c(OC)n1 [Example 29.6, 8-(2,4-Dimethoxy-pyrimidin-5-yl)-1-[6-(3-hydroxy-azetidin-1-yl)-2-methyl-pyridin-3-yl]-3-methyl-1,3-dihydro-imidazo[4,5-c]quinolin-2-one] | 208
CNc1ncc(-c2ccc3ncc4c(c3c2)n(-c2ccc(N3CCC(O)C3)nc2C)c(=O)n4C)cn1 (stereo not drawn) [Example 27.2, 1-[6-(3-Hydroxy-pyrrolidin-1-yl)-2-methyl-pyridin-3-yl]-3-methyl-8-(2-methylamino-pyrimidin-5-yl)-1,3-dihydro-imidazo[4,5-c]quinolin-2-one] | 11.3
